Experiment [1] has as its target α4β7 integrin (Homo sapiens (Human), UniProt P13612+P26010). The experiment is described as follows: Integrin Adhesion Assay: Protocol 1 (MAdCAM-coated plate, RPMI-8866 cells, CellTiter GLO readout). The class given is cell-based. A digest of the protocol:
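RPMI-8866 cells (2×10^6 per mL) added with compounds (1% DMSO) to MAdCAM-coated wells blocked in HEPES/NaCl buffer with 1 mM MnCl2, 0.1 mM CaCl2, 1% BSA; 1 h at 37° C, 5% CO2. After four washes, bound cells read by CellTiter GLO luminescence; % inhibition vs DMSO and control wells, 4-parameter fit.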
(In general: Cellular ATP, detected with luciferase, serves as a proxy for viable cell number.)

In experiment [2] the target is α4β1 integrin (Homo sapiens (Human), UniProt P05556+P13612). As to the kind of experiment: Integrin Adhesion Assay: Protocol 5 (VCAM-coated plate, RPMI-8866 cells with stable LOF mutation of the ITGB7 gene). In kind it is cell-based. A digest of the protocol: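 RPMI-8866 B cells with CRISPR/Cas9 ITGB7 knockout (clonal, verified by flow cytometry) adhered to VCAM-coated wells for 1 h at 37° C in HEPES/NaCl buffer with 1 mM MnCl2, 0.1 mM CaCl2, 1% BSA, 1% DMSO. Bound cells quantified by CellTiter-Glo luminescence after washing; % inhibition versus DMSO and control, 4-parameter fit.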

Where [3] appears, read: RPMI-8866 cells with stable LOF mutation of the ITGB7 gene, read-out: Mean IC50 α4β1 KO^b.
Where [4] appears, read: Protocol 5, RPMI-8866 cells with LOF mutation of ITGB7, VCAM, read-out: Mean IC50 α4β1 KO.

Read-outs that look alike come from different tables or passages of the source.

As usually defined, the IC50 is the concentration at which inhibition is half-maximal.

α4β7 integrin, sequence (P13612 34-1032): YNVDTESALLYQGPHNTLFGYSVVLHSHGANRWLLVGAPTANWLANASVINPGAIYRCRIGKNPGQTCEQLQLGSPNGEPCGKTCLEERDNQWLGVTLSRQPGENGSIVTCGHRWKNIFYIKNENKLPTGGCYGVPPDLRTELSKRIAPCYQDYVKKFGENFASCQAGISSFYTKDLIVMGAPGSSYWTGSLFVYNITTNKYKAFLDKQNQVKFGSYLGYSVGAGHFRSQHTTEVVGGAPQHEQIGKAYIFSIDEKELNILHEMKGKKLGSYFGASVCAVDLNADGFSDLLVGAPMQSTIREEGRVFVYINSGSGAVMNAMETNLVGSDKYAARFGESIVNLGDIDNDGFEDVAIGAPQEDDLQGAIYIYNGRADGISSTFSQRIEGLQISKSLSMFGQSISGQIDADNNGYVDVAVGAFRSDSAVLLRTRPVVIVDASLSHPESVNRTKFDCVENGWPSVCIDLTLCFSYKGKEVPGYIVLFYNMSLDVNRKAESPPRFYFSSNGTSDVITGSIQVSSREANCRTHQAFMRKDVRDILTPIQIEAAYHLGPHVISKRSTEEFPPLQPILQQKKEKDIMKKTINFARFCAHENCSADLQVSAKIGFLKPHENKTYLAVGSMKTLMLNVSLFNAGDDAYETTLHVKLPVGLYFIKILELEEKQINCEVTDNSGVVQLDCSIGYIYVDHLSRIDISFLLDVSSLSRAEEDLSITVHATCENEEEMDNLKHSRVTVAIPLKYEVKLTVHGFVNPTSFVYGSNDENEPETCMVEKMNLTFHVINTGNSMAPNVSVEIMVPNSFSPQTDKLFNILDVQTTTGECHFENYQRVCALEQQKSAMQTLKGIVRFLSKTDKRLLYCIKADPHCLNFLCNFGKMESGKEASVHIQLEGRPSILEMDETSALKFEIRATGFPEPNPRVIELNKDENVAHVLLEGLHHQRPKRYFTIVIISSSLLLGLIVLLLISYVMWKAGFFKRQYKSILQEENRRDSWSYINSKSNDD
α4β7 integrin, sequence (P26010 20-798): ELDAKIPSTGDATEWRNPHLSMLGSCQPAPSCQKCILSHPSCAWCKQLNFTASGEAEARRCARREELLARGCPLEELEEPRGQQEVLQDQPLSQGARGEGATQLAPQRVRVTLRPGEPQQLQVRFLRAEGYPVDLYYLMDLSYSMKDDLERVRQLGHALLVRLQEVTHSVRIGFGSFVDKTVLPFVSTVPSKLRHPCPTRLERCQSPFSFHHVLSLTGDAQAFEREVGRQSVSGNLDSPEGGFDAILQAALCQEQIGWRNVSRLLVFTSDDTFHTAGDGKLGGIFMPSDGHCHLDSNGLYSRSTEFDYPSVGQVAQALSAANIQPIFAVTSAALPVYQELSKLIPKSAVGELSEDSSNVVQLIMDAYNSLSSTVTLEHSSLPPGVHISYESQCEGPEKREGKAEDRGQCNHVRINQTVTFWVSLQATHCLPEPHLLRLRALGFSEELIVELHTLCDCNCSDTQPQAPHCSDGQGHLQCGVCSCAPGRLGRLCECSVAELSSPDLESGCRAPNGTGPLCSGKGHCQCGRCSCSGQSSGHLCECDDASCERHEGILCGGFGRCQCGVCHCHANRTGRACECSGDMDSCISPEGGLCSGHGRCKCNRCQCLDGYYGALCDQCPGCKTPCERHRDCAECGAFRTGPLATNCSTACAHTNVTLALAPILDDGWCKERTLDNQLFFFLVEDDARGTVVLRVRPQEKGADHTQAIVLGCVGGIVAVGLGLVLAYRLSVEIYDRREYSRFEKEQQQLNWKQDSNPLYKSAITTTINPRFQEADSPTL
α4β1 integrin, sequence (P13612 34-1032): as the sequence (P13612 34-1032) above
α4β1 integrin, sequence (P05556 21-798): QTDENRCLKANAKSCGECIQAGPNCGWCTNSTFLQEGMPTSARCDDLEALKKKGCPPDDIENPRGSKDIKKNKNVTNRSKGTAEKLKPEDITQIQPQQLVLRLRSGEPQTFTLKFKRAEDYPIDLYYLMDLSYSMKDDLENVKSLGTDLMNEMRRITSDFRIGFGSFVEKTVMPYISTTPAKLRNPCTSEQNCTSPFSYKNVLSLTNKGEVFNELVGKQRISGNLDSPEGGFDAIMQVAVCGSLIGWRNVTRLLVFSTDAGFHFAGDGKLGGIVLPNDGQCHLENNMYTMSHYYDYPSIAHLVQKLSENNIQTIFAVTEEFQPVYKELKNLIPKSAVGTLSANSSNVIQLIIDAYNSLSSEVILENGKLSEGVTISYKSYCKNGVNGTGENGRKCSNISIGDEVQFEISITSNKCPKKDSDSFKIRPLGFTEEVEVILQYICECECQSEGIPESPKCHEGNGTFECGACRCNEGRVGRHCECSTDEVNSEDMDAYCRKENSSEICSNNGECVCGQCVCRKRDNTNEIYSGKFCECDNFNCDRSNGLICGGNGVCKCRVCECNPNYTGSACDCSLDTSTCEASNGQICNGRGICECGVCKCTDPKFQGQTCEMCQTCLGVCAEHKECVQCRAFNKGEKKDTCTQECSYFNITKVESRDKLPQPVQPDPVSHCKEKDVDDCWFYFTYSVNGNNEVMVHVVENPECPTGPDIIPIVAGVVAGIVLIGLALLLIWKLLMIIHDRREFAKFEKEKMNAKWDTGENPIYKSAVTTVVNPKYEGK

With `CN(C)c1ccc2c(-c3cccc4c(C[C@H](NC(=O)c5c(F)cc(N6CCOC[C@@H]6C(F)(F)F)cc5CN5CCOCC5)C(=O)O)cccc34)nccc2c1` [Compound 299], the IC50 in experiment [1] is less than 0.01 µM; in experiment [2] (setting [3]) it was greater than 1 µM.
As to `CN(C)Cc1cccc2c(-c3cccc4c(C[C@H](NC(=O)[C@]5(C)CC[C@@H](N6CCOC[C@@H]6C(F)(F)F)CC5)C(=O)O)cccc34)nccc12` [Compound 418], the concentration for half-maximal inhibition (IC50) in experiment [1] is less than 0.01 µM; in experiment [2] (setting [3]), greater than 1 µM.
Take `Cc1cccc(C)c1-c1cc(F)c(C(=O)N[C@@H](Cc2cccc3c(-n4c(=O)cc(CCN5CC(F)C5)n(C)c4=O)cccc23)C(=O)O)c(F)c1` [Compound 1057]: the results for the IC50 in experiment [1] (protocol not given) and in experiment [2] (setting [4]) were 0.01 to 0.1 µM and greater than 1 µM, respectively.
Turning to `CN(C)Cc1cc(-c2cccc3c(C[C@H](NC(=O)c4c(F)cc(N5CCOC[C@@H]5C(F)(F)F)cc4F)C(=O)O)cccc23)c2cnccc2c1` [Compound 445], the results for the IC50 in experiment [1] and in experiment [2] (setting [3]) were less than 0.01 µM and greater than 1 µM, respectively.
Regarding `Cn1c(=O)c(-c2cccc3c(C[C@H](NC(=O)c4c(F)cc(N5CCOC[C@@H]5C(F)(F)F)cc4CN4CCCC4)C(=O)O)cccc23)c(C(F)(F)F)c2ccccc21` [Compound 359], the concentration for half-maximal inhibition (IC50) in experiment [1] was less than 0.01 µM; in experiment [2] (setting [3]), greater than 1 µM.
Consider `CN(C)Cc1ccc2c(-c3cccc4c(C[C@H](NC(=O)c5c(F)cc(N6CCOC[C@@H]6C(F)(F)F)cc5CN5CCOCC5)C(=O)O)cccc34)nccc2c1` [Compound 557], for which the half-inhibitory concentration (IC50) in experiment [1] was less than 0.01 µM; in experiment [2] (setting [3]), greater than 1 µM.
`Cn1c(=O)c(-c2cccc3c(C[C@H](NC(=O)c4c(F)cccc4CN4CCCC4)C(=O)O)cccc23)c(C(F)(F)F)c2ccccc21` [Compound 351]: the values for the IC50 in experiment [1] and in experiment [2] (setting [3]) were less than 0.01 µM and greater than 1 µM, respectively.
With `Cc1ccnc(C)c1-c1ccc(F)c(C(=O)N[C@@H](Cc2cccc3c(-c4c(C(F)(F)F)c5ccccc5n(C)c4=O)cccc23)C(=O)O)c1F` [Compound 315], the IC50 in experiment [1] was 0.01 to 0.1 µM; in experiment [2] (setting [3]), greater than 1 µM.
Turning to `CN1CCN(c2cc(F)c(C(=O)N[C@@H](Cc3cccc4c(-c5c(C(F)(F)F)c6ccccc6n(C)c5=O)cccc34)C(=O)O)c(F)c2)CC1` [Compound 350], the IC50 is 0.01 to 0.1 µM in experiment [1] and greater than 1 µM in experiment [2] (setting [3]).
Turning to `Cn1c(=O)c(-c2cccc3c(C[C@H](NC(=O)c4c(F)ccc(-c5ccccn5)c4F)C(=O)O)cccc23)c(C(F)(F)F)c2ccccc21` [Compound 313], the half-maximal inhibitory concentration (IC50) in experiment [1] is 0.01 to 0.1 µM; in experiment [2] (setting [3]), greater than 1 µM.
For `Cn1c(C(F)(F)F)cc(C(F)(F)F)c(-c2cccc3c(C[C@H](NC(=O)[C@]4(C)CC[C@@H](N5CCOC[C@@H]5C(F)(F)F)CC4)C(=O)O)cccc23)c1=O` [Compound 407], the results for the 50% inhibitory concentration (IC50) in experiment [1] and in experiment [2] (setting [3]) were 0.01 to 0.1 µM and greater than 1 µM, respectively.
For the compound `COCCN(c1cc(F)c(C(=O)N[C@@H](Cc2cccc3c(-c4c(C(F)(F)F)c5ccccc5n(C)c4=O)cccc23)C(=O)O)c(F)c1)C1COC1` [Compound 393], the IC50 is 0.01 to 0.1 µM in experiment [1] and greater than 1 µM in experiment [2] (setting [3]).
In the case of `CN(C)C1CCN(Cc2cc(N3CCOC[C@@H]3C(F)(F)F)cc(F)c2C(=O)N[C@@H](Cc2cccc3c(-c4cccc5ccncc45)cccc23)C(=O)O)CC1` [Compound 300], the 50% inhibitory concentration (IC50) is less than 0.01 µM in experiment [1] and greater than 1 µM in experiment [2] (setting [3]).
With `Cn1c(C(F)(F)F)cc(C(F)(F)F)c(-c2cccc3c(C[C@H](NC(=O)[C@]4(C)CC[C@H](N5CCOC[C@@H]5C(F)(F)F)CC4)C(=O)O)cccc23)c1=O` [Compound 408], the IC50 was 0.01 to 0.1 µM in experiment [1] and greater than 1 µM in experiment [2] (setting [3]).
On to `COCCN(C)c1cc(F)c(C(=O)N[C@@H](Cc2cccc3c(-c4c(C(F)(F)F)c5ccccc5n(C)c4=O)cccc23)C(=O)O)c(F)c1` [Compound 384], for which the figures for the IC50 in experiment [1] and in experiment [2] (setting [3]) were 0.1 to 1 µM and greater than 1 µM, respectively.
In the same order, the values of `Cn1c(C(F)(F)F)cc(C(F)(F)F)c(-c2cccc3c(C[C@H](NC(=O)C4(C(F)(F)F)CCN(CC(F)(F)F)CC4)C(=O)O)cccc23)c1=O` [Compound 431] are less than 0.01 µM and 0.1 to 1 µM.
The like results for `CN(c1cc(F)c(C(=O)N[C@@H](Cc2cccc3c(-c4c(C(F)(F)F)c5ccccc5n(C)c4=O)cccc23)C(=O)O)c(F)c1)C1COC1` [Compound 364] were, in that order, 0.1 to 1 µM and greater than 1 µM.
For the compound `Cn1c(=O)c(-c2cccc3c(C[C@H](NC(=O)c4c(F)ccc(-c5cccnc5)c4F)C(=O)O)cccc23)c(C(F)(F)F)c2ccccc21` [Compound 312], the results for the concentration for half-maximal inhibition (IC50) in experiment [1] and in experiment [2] (setting [3]) were 0.01 to 0.1 µM and greater than 1 µM, respectively.
On to `Cn1ccc(C(F)(F)F)c(-c2cccc3c(C[C@H](NC(=O)c4c(F)cc(N5CCOc6ccccc65)cc4F)C(=O)O)cccc23)c1=O` [Compound 439], for which the IC50 is 0.01 to 0.1 µM in experiment [1] and greater than 1 µM in experiment [2] (setting [3]).
Consider `Cn1c(=O)c(-c2cccc3c(C[C@H](NC(=O)[C@]4(C)CC[C@@H](N5CCC(F)(F)CC5)CC4)C(=O)O)cccc23)c(C(F)(F)F)c2ccccc21` [Compound 401], for which the results for the IC50 in experiment [1] and in experiment [2] (setting [3]) were 0.01 to 0.1 µM and greater than 1 µM, respectively.
Consider `CN(C)CCc1ccc2c(c1)c(C(F)(F)F)c(-c1cccc3c(C[C@H](NC(=O)c4c(F)cccc4F)C(=O)O)cccc13)c(=O)n2C` [Compound 705], for which the half-inhibitory concentration (IC50) was less than 0.01 µM in experiment [1] (protocol not given) and 0.1 to 1 µM in experiment [2] (setting [4]).
As to `Cn1c(=O)c(-c2cccc3c(C[C@H](NC(=O)C4(C)CCN(C5COC5)CC4)C(=O)O)cccc23)c(C(F)(F)F)c2ccccc21` [Compound 363], the values for the concentration for half-maximal inhibition (IC50) in experiment [1] and in experiment [2] (setting [3]) were 0.01 to 0.1 µM and greater than 1 µM, respectively.
`Cc1[nH]c2ccccc2c1-c1cc(F)c(C(=O)N[C@@H](Cc2cccc3c(-c4c(C(F)(F)F)c5ccccc5n(C)c4=O)cccc23)C(=O)O)c(F)c1` [Compound 327]: the IC50 was 0.1 to 1 µM in experiment [1] and greater than 1 µM in experiment [2] (setting [3]).
`Cc1cc(N2CCOC[C@@H]2C(F)(F)F)cc(F)c1C(=O)N[C@@H](Cc1cccc2c(-c3c(C(F)(F)F)c4ccccc4n(C)c3=O)cccc12)C(=O)O` [Compound 361]: the IC50 in experiment [1] is 0.01 to 0.1 µM; in experiment [2] (setting [3]), greater than 1 µM.
On to `Cn1c(=O)c(-c2cccc3c(C[C@H](NC(=O)c4c(F)cc(N(CCC(F)(F)F)C5COC5)cc4F)C(=O)O)cccc23)c(C(F)(F)F)c2ccccc21` [Compound 392], for which the IC50 in experiment [1] was 0.01 to 0.1 µM; in experiment [2] (setting [3]), greater than 1 µM.
`Cn1c(=O)c(-c2cccc3c(C[C@H](NC(=O)c4c(F)cc(C(F)(F)F)cc4F)C(=O)O)cccc23)c(C(F)(F)F)c2ccccc21` [Compound 325]: the IC50 in experiment [1] and in experiment [2] (setting [3]) was greater than 1 µM each time.
In the case of `CN(C)Cc1cccc2c(-c3cccc4c(C[C@H](NC(=O)C5(C)CCN(CC(F)(F)F)CC5)C(=O)O)cccc34)nccc12` [Compound 420], the IC50 in experiment [1] was 0.01 to 0.1 µM; in experiment [2] (setting [3]), greater than 1 µM.
On to `O=C(N[C@@H](Cc1cccc2c(-c3cccc4ccncc34)cccc12)C(=O)O)c1c(F)cccc1CN1CCCC1` [Compound 356], for which the values for the 50% inhibitory concentration (IC50) in experiment [1] and in experiment [2] (setting [3]) were 0.01 to 0.1 µM and greater than 1 µM, respectively.
The like results for `CN(C)c1ccc2c(c1)c(C(F)(F)F)c(-c1cccc3c(C[C@H](NC(=O)[C@]4(C)CC[C@H](N5CCC(F)(F)CC5)CC4)C(=O)O)cccc13)c(=O)n2C` [Compound 412] were, in that order, greater than 1 µM and greater than 1 µM.
In the case of `Cn1c(=O)c(-c2cccc3c(C[C@H](NC(=O)c4c(F)cc(N(C5COC5)C5COC5)cc4F)C(=O)O)cccc23)c(C(F)(F)F)c2ccccc21` [Compound 397], the IC50 in experiment [1] is 0.1 to 1 µM; in experiment [2] (setting [3]), greater than 1 µM.
On to `CN(C)Cc1ccc2c(-c3cccc4c(C[C@H](NC(=O)[C@]5(C)CC[C@H](N6CCOC[C@@H]6C(F)(F)F)CC5)C(=O)O)cccc34)nccc2c1` [Compound 582], for which the 50% inhibitory concentration (IC50) in experiment [1] was 0.01 to 0.1 µM; in experiment [2] (setting [3]), greater than 1 µM.
Take `O=C(N[C@@H](Cc1cccc2c(-c3cccc4ccncc34)cccc12)C(=O)O)c1c(F)cccc1CN1CCC(F)(F)CC1` [Compound 358]: the values for the IC50 in experiment [1] and in experiment [2] (setting [3]) were 0.01 to 0.1 µM and greater than 1 µM, respectively.
`Cn1ccc(C(F)(F)F)c(-c2cccc3c(C[C@H](NC(=O)c4c(F)cc(N5CCOC(CN6CCCC6)C5)cc4F)C(=O)O)cccc23)c1=O` (some centres unmarked) [Compound 440]: the concentration for half-maximal inhibition (IC50) in experiment [1] is 0.01 to 0.1 µM; in experiment [2] (setting [3]) it was greater than 1 µM.
With `Cc1n[nH]c(C)c1-c1cc(F)c(C(=O)N[C@@H](Cc2cccc3c(-c4c(C(F)(F)F)c5ccccc5n(C)c4=O)cccc23)C(=O)O)c(F)c1` [Compound 308], the IC50 is 0.01 to 0.1 µM in experiment [1] and greater than 1 µM in experiment [2] (setting [3]).
`CN(C)Cc1cccc2c(-c3cccc4c(C[C@H](NC(=O)[C@]5(C)CC[C@H](N6CCC(F)(F)CC6)CC5)C(=O)O)cccc34)nccc12` [Compound 424]: the half-inhibitory concentration (IC50) in experiment [1] is less than 0.01 µM; in experiment [2] (setting [3]), greater than 1 µM.
Regarding `CO[C@@H](C)c1cc(F)c(C(=O)N[C@@H](Cc2cccc3c(-c4c(C(F)(F)F)c5ccccc5n(C)c4=O)cccc23)C(=O)O)c(F)c1` [Compound 415], the half-maximal inhibitory concentration (IC50) was 0.1 to 1 µM in experiment [1] and greater than 1 µM in experiment [2] (setting [3]).
Turning to `Cn1c(=O)c(-c2cccc3c(C[C@H](NC(=O)c4c(F)cc(N5CC(C)(C)OC(C)(C)C5)cc4F)C(=O)O)cccc23)c(C(F)(F)F)c2ccccc21` [Compound 331], the half-inhibitory concentration (IC50) in experiment [1] is 0.01 to 0.1 µM; in experiment [2] (setting [3]) it was greater than 1 µM.

Source of the values: patent US20250313535A1, “ALPHA 4 BETA 7 INTEGRIN MODULATORS AND USES THEREOF” (DICE MOLECULES SV, INC., priority 2022, published 2025).
